Experimental findings from patent US10801035B2, “Plants having increased tolerance to herbicides” (BASF SE, priority 2011, dated 2020) are described below.

The Ki is the equilibrium dissociation constant of an inhibitor or competing ligand from its target.

Test [1] has as its target T1, Arabidopsis HPPD (SEQ ID: 53) (Arabidopsis thaliana, UniProt P93836).
T1 construct: His6 (N); made in house; host or cells: E. coli BL21 (DE3)
T1 sequence (P93836 1-445): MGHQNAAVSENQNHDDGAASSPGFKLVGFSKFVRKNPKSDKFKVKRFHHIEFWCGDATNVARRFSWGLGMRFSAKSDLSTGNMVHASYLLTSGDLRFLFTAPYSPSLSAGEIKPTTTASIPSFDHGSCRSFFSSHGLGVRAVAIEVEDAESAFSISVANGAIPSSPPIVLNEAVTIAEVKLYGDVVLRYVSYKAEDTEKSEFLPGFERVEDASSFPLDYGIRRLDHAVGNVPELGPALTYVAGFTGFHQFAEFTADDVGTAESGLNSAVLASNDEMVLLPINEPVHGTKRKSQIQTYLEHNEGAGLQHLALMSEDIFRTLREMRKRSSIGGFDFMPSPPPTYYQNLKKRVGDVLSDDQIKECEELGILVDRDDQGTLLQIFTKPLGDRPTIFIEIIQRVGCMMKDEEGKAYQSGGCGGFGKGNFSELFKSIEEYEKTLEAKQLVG
In words: HPPD activity assay, wildtype Arabidopsis HPPD. It counts as biochemical. The note with it: for Normalized tolerance index (TI): Arabidopsis HPPD Wildtype, normalized on wildtype (Table 11); for Ki / TI (tolerance index): Arabidopsis HPPD; for Ki: Cheng-Prusoff from IC50, read-out: Ki (dissociation constant); for TI (tolerance index): not normalized. How it is done: (§1) HPPD produces homogentisic acid and CO2 from 4-hydroxyphenylpyruvate (4-HPP) and O2. The activity assay for HPPD is based on the analysis of homogentisic acid by reversed phase HPLC.
The assay mixture can contain 150 mM potassium phosphate buffer pH 7.0, 50 mM L-ascorbic acid, 1 μM FeSO4 and 7 μg of purified enzyme in a total volume of 1 ml. Inhibitors are dissolved in DMSO (dimethylsulfoxide) to a concentration of 20 mM or 0.5 mM, respectively. From this stock solution serial five-fold dilutions are prepared in DMSO, which are used in the assay. The respective inhibitor solution accounts for 1% of the assay volume. Thus, final inhibitor concentrations range from 200 μM to 2.5 nM or from 5 μM to 63 pM, respectively. After a preincubation of 30 min the reaction is started by adding 4-HPP to a final concentration of 0.1 mM. The reaction is allowed to proceed for 120 min at room temperature. The reaction is stopped by addition of 100 μl of 4.5 M phosphoric acid.
Activities are normalized by setting the uninhibited enzyme activity to 100%. […] values are calculated using non-linear regression.
The assay mixture can contain 150 mM potassium phosphate buffer pH 7.0, 50 mM L-ascorbic acid, 100 μM Catalase (Sigma-Aldrich), 1 μM FeSO4 and 0.2 units of purified HPPD enzyme in a total volume of 505 μl. 1 unit is defined as the amount of enzyme that is required to produce 1 nmol of HGA per minute at 20° C.
Inhibitors are dissolved in DMSO (dimethylsulfoxide) to a concentration of 0.5 mM. From this stock solution serial five-fold dilutions are prepared in DMSO, which are used in the assay. The respective inhibitor solution accounts for 1% of the assay volume. Thus, final inhibitor concentrations range from 5 μM to 320 pM, respectively. Activities are normalized by setting the uninhibited enzyme activity to 100%. IC50 values are calculated using non-linear regression.
Using methods which are described in the above examples or well known in the art, purified, recombinant wildtype HPPD enzymes are characterized with respect to their kinetic properties and sensitivity towards HPPD inhibiting herbicides. Apparent michaelis constants (Km) and maximal reaction velocities (Vmax) are calculated by non-linear regression with the software GraphPad Prism 5 (GraphPad Software, La Jolla, USA) using a substrate inhibition model. Apparent kcat values are calculated from Vmax assuming 100% purity of the enzyme preparation. Weighted means (by standard error) of Km and […] values are calculated from at least three independent experiments. The Cheng-Prusoff equation for competitive inhibition (Cheng, Y. C.; Prusoff, W. H. Biochem Pharmacol 1973, 22, 3099-3108) is used to calculate dissociation constants (Ki).
Field performance of the HPPD enzyme, which is used as a herbicide tolerance trait may depend not only on its lack of sensitivity towards HPPD inhibiting herbicides but also on its activity. To assess the potential performance of a herbicide tolerance trait a tolerance index (TI) is calculated using the following formula: […]
Easy comparison and ranking of each trait is enabled by normalizing every tolerance index on Hordeum HPPD.

Test [2] concerns Rhodococcus HPPD2. As to the kind of experiment: HPPD activity assay, Rhodococcus HPPD2. It counts as biochemical. The note with it: normalized on Hordeum HPPD. How it is done:
as §1
(§2) The assay mixture can contain 150 mM potassium phosphate buffer pH 7.0, 50 mM L-ascorbic acid, 1 μM FeSO4 and 7 μg of purified enzyme in a total volume of 1 ml. Inhibitors are dissolved in DMSO (dimethylsulfoxide) to a concentration of 20 mM or 0.5 mM, respectively. From this stock solution serial five-fold dilutions are prepared in DMSO, which are used in the assay. The respective inhibitor solution accounts for 1% of the assay volume. […]
(§3) Activities are normalized by setting the uninhibited enzyme activity to 100%. […] values are calculated using non-linear regression. […]
(§4) Inhibitors are dissolved in DMSO (dimethylsulfoxide) to a concentration of 0.5 mM. […] IC50 values are calculated using non-linear regression.
(§5) Using methods which are described in the above examples or well known in the art, purified, recombinant wildtype HPPD enzymes are characterized with respect to their kinetic properties and sensitivity towards HPPD inhibiting herbicides. Apparent michaelis constants (Km) and maximal reaction velocities (Vmax) are calculated by non-linear regression with the software GraphPad Prism 5 (GraphPad Software, La Jolla, USA) using a substrate inhibition model. […]

The subject of test [3] is Avena HPPD. As to the kind of experiment: HPPD activity assay, Avena HPPD. Type of test: biochemical. The note with it: normalized on Hordeum HPPD. The protocol:
as §1, §2, §3, §4, §5

Test [4] deals with Blepharisma HPPD. In words: HPPD activity assay, Blepharisma HPPD. Type of test: biochemical. The note with it: normalized on Hordeum HPPD. How it is done:
as §1, §2, §3, §4, §5

For test [5], the system named is transgenic Arabidopsis plants overexpressing Barley HPPD (Seq ID: 2). As to the kind of experiment: Arabidopsis growth inhibition in 48-well plates, line overexpressing Barley HPPD. Type of test: in vivo, Arabidopsis thaliana. The note with it: Barley HPPD (Seq ID: 2) overexpression line; plant growth IC50 of transgenic divided by wildtype. How it is done:
Depending on the species, the plants are kept at 10-25° C. or 20-35° C. The test period extends over 3 weeks. During this time, the plants are tended and their response to the individual treatments is evaluated. Herbicide injury evaluations are taken at 2 and 3 weeks after treatment. Plant injury is rated on a scale of 0 to 9, 0 being no injury and 9 being complete death. Tolerance to coumarone-derivative herbicides can also be assessed in Arabidopsis. In this case transgenic Arabidopsis thaliana plants are assayed for improved tolerance to coumarone-derivative herbicides in 48-well plates. Seeds are surface sterilized by stirring for 5 min in ethanol+water (70+30 by volume), rinsing one time with ethanol+water (70+30 by volume) and two times with a sterile, deionized water. The seeds are resuspended in 0.1% agar dissolved in water (w/v). Four to five seeds per well are plated on solid nutrient medium consisting of half-strength Murashige Skoog nutrient solution, pH 5.8 (Murashige and Skoog (1962) Physiologia Plantarum 15: 473-497). […] Seven to ten days after seeding growth inhibition is evaluated by comparison to wild type plants. Tolerance factor is calculated by dividing the plant growth IC50 value of transgenic plants containing a HPPD and/or HST sequence by that of wildtype plants. […]

The test system of test [6] is Kordia HPPD. As to the kind of experiment: HPPD activity assay, Kordia HPPD. Type of test: biochemical. The note with it: normalized on Hordeum HPPD. The protocol:
as §1, §2, §3, §4, §5

As to `CC1=NOC(c2c(Cl)ccc(C3=C(O)c4ncccc4N(CC(F)F)S3(=O)=O)c2Cl)C1` (stereo not shown) [Inhibitor 1, 3-[2,4-dichloro-3-(3-methyl-4,5-dihydroisoxazol-5-yl)phenyl]-1-(2,2-difluoroethyl)-2,2-dioxo-pyrido[3,2-c]thiazin-4-ol], the “Normalized tolerance index (TI)” value in test [1] is recorded as 1; in test [2], 73.9; in test [3], 7.4; in test [4], 6.3; in test [6], 7.5. Also, the Ki in test [1] worked out at 3.3 nM. Besides, the “TI (tolerance index)” value in test [1] came out at 3.3E−3. Further, the Tolerance factor in test [5] turned out to be 3.

For `O=S1(=O)C(c2c(Cl)cc(Cl)nc2Cl)=C(O)c2ncccc2N1CC(F)F` [Inhibitor 2, 1-(2,2-difluoroethyl)-2,2-dioxo-3-(2,4,6-trichloro-3-pyridyl)pyrido[3,2-c]thiazin-4-ol], the “Normalized tolerance index (TI)” value in test [1] came out at 1; in test [2] it was 20.5; in test [3] it was 5.2; in test [4], 4.9; in test [6], 12. The Ki in test [1] turned out to be 15 nM. Moreover, the “TI (tolerance index)” value in test [1] is recorded as 1.5E−2. This compound also registered a Tolerance factor in test [5] of 4.
